Results as given in patent publication US9133115B2 (ACHILLION PHARMACEUTICALS, INC., priority 2008, dated 2015).

System: HCV replicon
Experiment: HCV replicon replication assay (NPT ELISA) in Huh-7 replicon-containing cells
Assay type: cell-based
Settings: Hepatitis C virus, 72 h; HCV replicon in Huh-7 cells, three days incubation; read-out: EC50
Method: Compounds claimed herein are tested for the ability to inhibit viral replication of the Hepatitis C replicon in cultured cells in which the HCV replicon construct has been incorporated. The HCV replicon system was described by Bartenschlager, et. al (Science, 285, pp. 110-113 (1999)). The replicon system is predictive of in vivo anti-HCV activity; compounds that are active in humans uniformly evidence activity in the replicon assay.
In this assay HCV replicon containing cells are treated with different concentrations of the test compound to ascertain the ability of the test compound to suppress replication of the HCV replicon. As a positive control, HCV replicon-containing cells are treated with different concentrations of interferon alpha, a known inhibitor of HCV replication. The replicon assay system includes Neomycin Phosphotransferase (NPT) as a component of the replicon itself in order to detect the transcription of replicon gene products in the host cell. Cells in which the HCV replicon is actively replicating have high levels of NPT; the level of NPT is proportional to HCV replication. […] The NPT level of each sample is measured using a captured ELISA.
A protocol for testing compounds for the ability to inhibit viral replication of the Hepatitis C replicon cultured cells in which the replicon construct has been incorporated, follows.
The HCV replicon contains, 5′-3′, the HCV-IRES, the neomycin phosphotransferase (neo) gene, the IRES of encephalomyocarditis virus, which directs translation of HCV sequences NS3 to NS5B, and the 3′-NTR. The sequence of the HCV replicon has been deposited in GenBank (Accession no. AJ242652).
The replicon is transfected into Huh-7 cells using standard methods such as electroporation.
The equipment and materials include, but are not limited to, Huh-7 HCV replicon-containing cells, maintenance media (DMEM (Dulbecco's modified Eagle media) supplemented with 10% FBS, L-glutamine, non-essential amino acids, penicillin (100 units/ml), streptomycin (100 micrograms/ml), and 500 micrograms/ml of Geneticin (G418), screening media (DMEM supplemented with 10% FBS, L-glutamine, non-essential amino acids, penicillin (100 units/ml) and streptomycin (100 micrograms/ml)), 96 well tissue culture plates (flat bottom), 96 well plates (U bottom for drug dilution), Interferon alpha for positive control, fixation reagent (such as methanol: acetone), primary antibody (rabbit anti-NPTII), secondary antibody: Eu-N1 l, and enhancement solution.
HCV replicon-containing cells support high levels of viral RNA replicon replication when their density is suitable. Over-confluency causes decreased viral RNA replication. Therefore, cells must be kept growing in log phase in the presence of 500 micrograms/ml of G418. Generally, cells should be passed twice a week at 1: 4-6 dilution. Cell maintenance is conducted as follows:
HCV replicon-containing cells are examined under a microscope to ensure that cells growing well. Cells are rinsed once with PBS and 2 ml trypsin is added. The cell/trypsin mixture is incubated at 37° C. in a CO2 incubator for 3-5 minutes. After incubation 10 ml of complete media is added to stop the trypsinization reaction. Cells are blown gently, put into a 15 ml tube, and spun at 1200 rpm for 4 minutes. The trypsin/medium solution is removed. Medium (5 ml) is added and the cells are mixed carefully. The cells are counted.
The cells are then seeded onto 96-well plates at a density of 6000-7500 cells/100 microliters/well (6-7.5×10^5 cells/10 ml/plate). The plates are then incubated at 37° C. in a 5% CO2 incubator.
Cells are examined under a microscope approximated 24 hours after seeding and prior to adding drugs. If counting and dilution were performed correctly, cells are 60-70% confluent and nearly all cells should attach and spread evenly in the well.
HCV replicon-containing cells are rinsed with once PBS once; 2 mls of trypsin are then added. Cells are incubated at 37° C. in a 5% CO2 incubator for 3-5 minutes. […]

Structure (SMILES)	EC50 [µM]
C=C[C@@H]1C[C@]1(NC(=O)[C@@H]1C[C@@H](Oc2cc(-c3ccccc3)nc3cc(OC)ccc23)CN1C(=O)C(CC(=O)N1CCCCC1)C(C)(C)C)C(=O)NS(=O)(=O)C1CC1 (stereo partly drawn) [Compound 55, (2S,4R)-1-(2-tert-butyl-4-oxo-4-(piperidin-1-yl)butanoyl)-N-((1R,2S)-1-(cyclopropyl-sulfonylcarbamoyl)-2-vinylcyclopropyl)-4-(7-methoxy-2-phenylquinolin-4-yloxy)pyrrolidine-2-carboxamide]	< 1
C=C[C@H]1C[C@]1(NC(=O)[C@@H]1C[C@@H](Oc2cc(-c3ccccc3)nc3cc(OC)ccc23)CN1C(=O)C[C@@H](CC1CCCC1)C(=O)N1CCCCC1)C(=O)NS(=O)(=O)C1CC1 [Compound 56, (2S,4R)-1-((R)-3-(cyclopentyl-methyl)-4-oxo-4-(piperidin-1-yl)butanoyl)-N-((1R,2R)-1-(cyclopropyl-sulfonylcarbamoyl)-2-vinylcyclopropyl)-4-(7-methoxy-2-phenylquinolin-4-yloxy)pyrrolidine-2-carboxamide]	1 to 10
C=C[C@H]1C[C@]1(NC(=O)[C@@H]1C[C@@H](Oc2cc(-c3ccccc3)nc3cc(OC)ccc23)CN1C(=O)[C@@H](CC(=O)N1CCCCC1)CC1CCCC1)C(=O)NS(=O)(=O)C1CC1 [Compound 57, (2S,4R)-1-((R)-2-(cyclopentylmethyl)-4-oxo-4-(piperidin-1-yl)butanoyl)-N-((1R,2R)-1-(cyclopropyl-sulfonylcarbamoyl)-2-vinylcyclopropyl)-4-(7-methoxy-2-phenylquinolin-4-yloxy)pyrrolidine-2-carboxamide]	< 1
C=C[C@H]1C[C@]1(NC(=O)[C@@H]1C[C@@H](Oc2cc(-c3ccccc3)nc3cc(OC)ccc23)CN1C(=O)[C@@H](CC(=O)N1CCCCC1)C(C)C)C(=O)NS(=O)(=O)C1CC1 [Compound 58, (2S,4R)-N-((1R,2R)-1-(cyclopropyl-sulfonylcarbamoyl)-2-vinylcyclopropyl)-1-((S)-2-isopropyl-4-oxo-4-(piperidin-1-yl)butanoyl)-4-(7-methoxy-2-phenylquinolin-4-yloxy)pyrrolidine-2-carboxamide]	< 1
C=CC1C[C@]1(NC(=O)[C@@H]1C[C@@H](Oc2cc(-c3ccccc3)nc3cc(OC)ccc23)CN1C(=O)[C@@H](CC(=O)N1CCCCC1)c1ccccc1)C(=O)NS(=O)(=O)C1CC1 (stereo partly drawn) [Compound 59, (2S,4R)-N-((1R,2R)-1-(cyclopropyl-sulfonylcarbamoyl)-2-vinylcyclopropyl)-4-(7-methoxy-2-phenylquinolin-4-yloxy)-1-((S)-4-oxo-2-phenyl-4-(piperidin-1-yl)butanoyl)pyr-rolidine-2-carboxamide]	< 1
C=C[C@H]1C[C@]1(NC(=O)[C@@H]1C[C@@H](Oc2cc(-c3ccccc3)nc3cc(OC)ccc23)CN1C(=O)[C@H](CC(=O)N1CCCCC1)CC1CCCCC1)C(=O)NS(=O)(=O)C1CC1 [Compound 60, (2S,4R)-1-((S)-2-(cyclohexylmethyl)-4-oxo-4-(piperidin-1-yl)butanoyl)-N-((1R,2R)-1-(cyclopropyl-sulfonylcarbamoyl)-2-vinylcyclopropyl)-4-(7-methoxy-2-phenylquinolin-4-yloxy)pyrrolidine-2-carboxamide]	1 to 10
C=C[C@@H]1C[C@]1(NC(=O)[C@@H]1C[C@@H](OC(=O)Nc2ccc(-c3ccccc3)cc2)CN1C(=O)[C@@H](CC(=O)N1CCCCC1)C(C)(C)C)C(=O)NS(=O)(=O)C1CC1 [Compound 61, (3R,5S)-1-((S)-2-tert-butyl-4-oxo-4-(piperidin-1-yl)butanoyl)-5-((1R,2S)-1-(cyclopropyl-sulfonylcarbamoyl)-2-vinylcyclopropyl-carbamoyl)pyrrolidin-3-yl biphenyl-4-ylcarbamate]	1 to 10
C=C[C@@H]1C[C@]1(NC(=O)[C@@H]1C[C@@H](Oc2cc(-c3ccccc3)nc3cc(OC)ccc23)CN1C(=O)[C@@H](CC(=O)N1CCCCC1)C(C)(C)C)C(=O)NS(=O)(=O)c1ccccc1 [Compound 62, (2S,4R)-1-((S)-2-tert-butyl-4-oxo-4-(piperidin-1-yl)butanoyl)-4-(7-methoxy-2-phenylquinolin-4-yloxy)-N-((1R,2S)-1-(phenylsulfonyl-carbamoyl)-2-vinyl-cyclopropyl)pyr-rolidine-2-carboxamide]	< 1
C=C[C@@H]1C[C@]1(NC(=O)[C@@H]1C[C@@H](Oc2cc(-c3ccccc3)nc3cc(OC)ccc23)CN1C(=O)[C@@H](CC(=O)N1CCCCC1)C(C)(C)C)C(=O)NS(=O)(=O)C(C)C [Compound 63, (2S,4R)-1-((S)-2-tert-butyl-4-oxo-4-(piperidin-1-yl)butanoyl)-N-((1R,2S)-1-(isopropylsulfonyl-carbamoyl)-2-vinylcyclopropyl)-4-(7-methoxy-2-phenylquinolin-4-yloxy)pyrrolidine-2-carboxamide]	< 1
C=C[C@@H]1C[C@]1(NC(=O)[C@@H]1C[C@@H](Oc2cc(-c3ccccc3)nc3cc(OC)ccc23)CN1C(=O)[C@@H](CC(=O)N1CCCCC1)C(C)(C)C)C(=O)NS(=O)(=O)Cc1ccccc1 [Compound 64, (2S,4R)-N-((1R,2S)-1-(benzylsulfonyl-carbamoyl)-2-vinylcyclopropyl)-1-((S)-2-tert-butyl-4-oxo-4-(piperidin-1-yl)butanoyl)-4-(7-methoxy-2-phenylquinolin-4-yloxy)pyrrolidine-2-carboxamide]	1 to 10
C=C[C@@H]1C[C@]1(NC(=O)[C@@H]1C[C@@H](Oc2cc(-c3ccccc3)nc3cc(OC)ccc23)CN1C(=O)[C@@H](CC(=O)N1CCCCC1)C(C)(C)C)C(=O)NS(=O)(=O)C(C)(C)C [Compound 65, (2S,4R)-1-((S)-2-tert-butyl-4-oxo-4-(piperidin-1-yl)butanoyl)-N-((1R,2S)-1-(tert-butylsulfonyl-carbamoyl)-2-vinylcyclopropyl)-4-(7-methoxy-2-phenylquinolin-4-yloxy)pyrrolidine-2-carboxamide]	1 to 10
C=C[C@@H]1C[C@]1(NC(=O)[C@@H]1C[C@@H](Oc2cc(-c3ccccc3)nc3cc(OC)ccc23)CN1C(=O)[C@@H](CC(=O)N1CCCCC1)C(C)(C)C)C(=O)NS(=O)(=O)C(F)(F)F [Compound 66, (2S,4R)-1-((S)-2-tert-butyl-4-oxo-4-(piperidin-1-yl)butanoyl)-4-(7-methoxy-2-phenylquinolin-4-yloxy)-N-((1R,2S)-1-(trifluoromethyl-sulfonylcarbamoyl)-2-vinylcyclo-propyl)pyrrolidine-2-carboxamide]	1 to 10
C=C[C@@H]1C[C@]1(NC(=O)[C@@H]1C[C@@H](Oc2cc(-c3ccccc3)nc3cc(OC)ccc23)CN1C(=O)[C@@H](CC(=O)N1CCCCC1)C(C)(C)C)C(=O)NS(=O)(=O)c1ccc(Cl)cc1 [Compound 67, (2S,4R)-1-((S)-2-tert-butyl-4-oxo-4-(piperidin-1-yl)butanoyl)-N-((1R,2S)-1-(4-chlorophenyl-sulfonylcarbamoyl)-2-vinylcyclopropyl)-4-(7-methoxy-2-phenylquinolin-4-yloxy)pyrrolidine-2-carboxamide]	< 1
C=C[C@@H]1C[C@]1(NC(=O)[C@@H]1C[C@@H](Oc2cc(-c3ccccc3)nc3cc(OC)ccc23)CN1C(=O)[C@@H](CC(=O)N1CCCCC1)C(C)(C)C)C(=O)NS(C)(=O)=O [Compound 68, (2S,4R)-1-((S)-2-tert-butyl-4-oxo-4-(piperidin-1-yl)butanoyl)-4-(7-methoxy-2-phenylquinolin-4-yloxy)-N-((1R,2S)-1-(methylsulfonyl-carbamoyl)-2-vinyl-cyclopropyl)pyr-rolidine-2-carboxamide]	< 1
